Laboratory results reported in patent US20210121527A1, “METHODS OF TREATING MINIMAL RESIDUAL CANCER” (ICAHN SCHOOL OF MEDICINE AT MOUNT SINAI, priority 2018, published 2021).
pIC50: −log10 of the molar value.

Columns and labels:
[1] = tested on: ZR75.1 HER2^+ cells; assay: 3D Matrigel culture of ZR75.1-H2B-Dendra2 cells at low or high density, live cells; assay type: cell-based, human; conditions: 2 μM, day 2 to day 8, 3D Matrigel
Experimental: (§1) Reagents, cell culture, and treatments: EGF was obtained from PeproTech (Rocky Hill, N.J.) and used at 100 ng/ml. Thapsigargin was from Sigma (St. Louis, Mo.) and used at 2 nM. The ZR75.1-H2B-Dendra2 cell line was generated by stable transfection of the H2B-Dendra2 plasmid (Gurskaya et al., “Engineering of a Monomeric Green-to-Red Photoactivatable Fluorescent Protein Induced by Blue Light,” Nat. Biotechnol. 24:461-465 (2006), which is hereby incorporated by reference in its entirety). For 3D cultures, MCF10A-HER2, SKBR3, and ZR75.1-H2B-Dendra2 cells were plated in growth factor-reduced Matrigel (Corning, Corning, N.Y.) and grown as described previously (Avivar-Valderas et al., “Regulation of Autophagy during ECM Detachment is Linked to a Selective Inhibition of mTORC1 by PERK,” Oncogene 32(41):4932-40 (2013), which is hereby incorporated by reference in its entirety). When referring to “low density,” 3,500 cells/8-well were seeded, and for “high density” 20,000 cells/8-well. Treatments with vehicle (DMSO) or LY4 (2 μM) were replaced every 24 hours for 2D and every 48 hours for 3D cultures.

[2] = biological target: T1, PERK (Mus musculus, UniProt Q9Z2B5); assay: IHC of P-PERK and P-eIF2α in tissues of treated MMTV-HER2 mice; assay type: in vivo; conditions: 50 mpk i.p. daily, two weeks
T1 construct: from tissue; host or cells: mammary gland and pancreas sections of MMTV-HER2 (FVB/N-Tg(MMTVneu)) female mice
T1 sequence (Q9Z2B5 29-1114): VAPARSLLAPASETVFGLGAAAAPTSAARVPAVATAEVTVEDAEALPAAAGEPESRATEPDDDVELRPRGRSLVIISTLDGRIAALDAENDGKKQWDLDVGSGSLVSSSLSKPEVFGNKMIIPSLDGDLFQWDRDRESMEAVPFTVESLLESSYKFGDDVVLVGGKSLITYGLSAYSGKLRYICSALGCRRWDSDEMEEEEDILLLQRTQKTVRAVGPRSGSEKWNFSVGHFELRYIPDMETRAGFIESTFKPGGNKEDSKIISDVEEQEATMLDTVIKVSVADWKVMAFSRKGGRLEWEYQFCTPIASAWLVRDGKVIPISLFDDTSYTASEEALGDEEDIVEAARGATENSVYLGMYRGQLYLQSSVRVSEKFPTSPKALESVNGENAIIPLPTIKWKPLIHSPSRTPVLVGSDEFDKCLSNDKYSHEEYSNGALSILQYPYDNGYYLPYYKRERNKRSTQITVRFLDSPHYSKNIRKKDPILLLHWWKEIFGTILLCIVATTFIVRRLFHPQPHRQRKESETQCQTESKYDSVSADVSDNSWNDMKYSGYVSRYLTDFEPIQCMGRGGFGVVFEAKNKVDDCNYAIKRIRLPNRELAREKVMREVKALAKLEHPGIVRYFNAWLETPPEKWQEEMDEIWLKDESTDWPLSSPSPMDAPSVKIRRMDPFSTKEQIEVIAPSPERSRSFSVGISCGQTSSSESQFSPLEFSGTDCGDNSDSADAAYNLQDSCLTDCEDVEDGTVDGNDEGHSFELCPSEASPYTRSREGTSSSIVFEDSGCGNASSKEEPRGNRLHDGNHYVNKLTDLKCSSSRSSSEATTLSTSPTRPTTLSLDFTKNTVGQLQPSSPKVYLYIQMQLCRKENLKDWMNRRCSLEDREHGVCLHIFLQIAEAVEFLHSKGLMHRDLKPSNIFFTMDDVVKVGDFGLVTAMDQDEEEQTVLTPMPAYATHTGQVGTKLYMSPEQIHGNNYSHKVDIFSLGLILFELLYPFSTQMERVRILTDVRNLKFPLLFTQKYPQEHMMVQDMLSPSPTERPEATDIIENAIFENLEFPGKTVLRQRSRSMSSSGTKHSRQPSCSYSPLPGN
Experimental: Mice, tumor growth, and tissue processing: The FVB/N-Tg (MMTVneu) mouse strain was obtained from Jackson Laboratories (Sacramento, Calif.). […] Before being used in any experiment, females underwent one round of pregnancy and at least two weeks of no lactation after weaning. Females between 24-32 weeks of age were injected intraperitoneally with vehicle (90% corn oil, 10% ethanol) or LY4 (50 mpk) daily, for two weeks. For the combination treatment, females 24-32 weeks of age were treated daily by oral gavage with Abemaciclib (50 mpk) for 4 weeks before starting the treatment described earlier with LY4. Tumor volumes were measured using the formula (Dxd^2)/2, where D is the longest and d is the shortest diameter. For CTC count, animals were anesthetized and whole blood was extracted by cardiac puncture. Mammary glands, lungs, and tumors were collected and fixed in 10% buffered formalin overnight before paraffin embedding. The bone marrow from the two lower limbs was flushed with a 26 G needle and further processed by Ficoll density gradient centrifugation. For CTC as well as for DTC detection in bone marrow, tissues were depleted of mature hematopoietic cells by anti-mouse antibody-labeled magnetic bead separation (Miltenyi Biotec, San Diego, Calif.) before fixation in formalin for 20 minutes at 4° C. […]

[3] = tested on: HER2^+ metastases and DCCs; assay: Sequential Abemaciclib then LY4 treatment of MMTV-HER2 mice; assay type: in vivo, mouse; conditions: Abemaciclib 50 mpk 4 weeks; LY4 50 mpk
Experimental: (§2) Mice, tumor growth, and tissue processing: The FVB/N-Tg (MMTVneu) mouse strain was obtained from Jackson Laboratories (Sacramento, Calif.). […] Before being used in any experiment, females underwent one round of pregnancy and at least two weeks of no lactation after weaning. Females between 24-32 weeks of age were injected intraperitoneally with vehicle (90% corn oil, 10% ethanol) or LY4 (50 mpk) daily, for two weeks. For the combination treatment, females 24-32 weeks of age were treated daily by oral gavage with Abemaciclib (50 mpk) for 4 weeks before starting the treatment described earlier with LY4. Tumor volumes were measured using the formula (Dxd^2)/2, where D is the longest and d is the shortest diameter. For CTC count, animals were anesthetized and whole blood was extracted by cardiac puncture. Mammary glands, lungs, and tumors were collected and fixed in 10% buffered formalin overnight before paraffin embedding. The bone marrow from the two lower limbs was flushed with a 26 G needle and further processed by Ficoll density gradient centrifugation. For CTC as well as for DTC detection in bone marrow, tissues were depleted of mature hematopoietic cells by anti-mouse antibody-labeled magnetic bead separation (Miltenyi Biotec, San Diego, Calif.) before fixation in formalin for 20 minutes at 4° C.

[4] = Tolerability in MMTV-HER2 female mice; assay type: in vivo, mouse
Experimental: as §2

[5] = tested on: MCF10A-HER2, ZR75.1, SKBR3; assay: 3D acini cultures in Matrigel, cleaved caspase-3 and P-histone H3; assay type: cell-based, human; conditions: 2 μM, 10 days
Experimental: Reagents, cell culture, and treatments: EGF was obtained from PeproTech (Rocky Hill, N.J.) and used at 100 ng/ml. Thapsigargin was from Sigma (St. Louis, Mo.) and used at 2 nM. The ZR75.1-H2B-Dendra2 cell line was generated by stable transfection of the H2B-Dendra2 plasmid (Gurskaya et al., “Engineering of a Monomeric Green-to-Red Photoactivatable Fluorescent Protein Induced by Blue Light,” Nat. Biotechnol. 24:461-465 (2006), which is hereby incorporated by reference in its entirety). For 3D cultures, MCF10A-HER2, SKBR3, and ZR75.1-H2B-Dendra2 cells were plated in growth factor-reduced Matrigel (Corning, Corning, N.Y.) and grown as described previously (Avivar-Valderas et al., “Regulation of Autophagy during ECM Detachment is Linked to a Selective Inhibition of mTORC1 by PERK,” Oncogene 32(41):4932-40 (2013), which is hereby incorporated by reference in its entirety). When referring to “low density,” 3,500 cells/8-well were seeded, and for “high density” 20,000 cells/8-well. Treatments with vehicle (DMSO) or LY4 (2 μM) were replaced every 24 hours for 2D and every 48 hours for 3D cultures. […]

[6] = tested on: MCF10A-HER2 cells; assay: Cell viability dose-response (Cell Titer Blue) with or without thapsigargin; assay type: cell-based; conditions: Homo sapiens, 48 hours, absence or presence of thapsigargin 2 nM, dashed line of FIG. 2D
Experimental: as §1

Cc1cc(NC(=O)[C@H](O)c2cc(F)cc(F)c2)ccc1-c1cnc(N)c(C(=O)NC(C)C)c1 [LY4, 2-amino-5-[4-[[(2R)-2-(3,5-difluorophenyl)-2-hydroxy-acetyl]amino]-2-methyl-phenyl]-N-isopropyl-pyridine-3-carboxamide]
survival of quiescent single cells (low density) [1]: eradicated the quiescent single ZR75.1 HER2^+ cells
viability of cells seeded at high density [1]: no significant effect on the viability
P-PERK and P-eIF2α levels in mammary gland ducts and pancreatic tissue [2]: significant decrease in P-PERK and P-eIF2α levels
GADD34 in primary tumor sections [3]: eliminated the expression of GADD34
bone marrow cell homeostasis and peripheral blood white cells (total cell counts) ([4]; 50 mpk i.p. daily, two weeks): no effect on total cell counts
tolerability, body weight ([4]; 50 mpk i.p. daily, two weeks): well tolerated, with no significant changes in body weight
glucose levels, blood cell counts, drinking and feeding behavior ([4]; doses of LY4 used, non-tumor or cancer bearing mice): did not significantly affect glucose levels, bone marrow, or peripheral blood cell counts, drinking and feeding behavior
apoptosis (cleaved caspase-3) in 3D acini [5]: significantly increased the levels of apoptosis (cleaved caspase-3)
proliferation in 3D acini (phospho-histone H3) [5]: a significant change in the levels of proliferation as detected by phospho-histone H3 levels was not observed
pIC50 [6]: ~8.05
